For three compounds, Bleeding time, IS value and Foam volume results are on record in patent US20250026716A1, “SYNTHESIS PROCESS OF FATTY ACYL TAURINE SALT” (ZHANGJIAGANG GREAT CHEMICAL CO., LTD., priority 2021, published 2025).

Series [1] has as its system chicken embryo chorioallantoic membrane. Put plainly: Irritancy (stimulus) test, chicken embryo chorioallantoic membrane method.
Series [2] can be described thus: Foaming performance test (foam volume, mixing method). It is filed as physicochemical. The following applies: 2 g of sample, 150 mg/kg hard water to 500 mL, stirring 30 s at 1000 rpm. The protocol: For further comparison, foaming performance tests are conducted on products of Examples 12-13 and Comparative Examples 16-17, and the test results are shown in Table 12.

As to `CCCCCCCCCCCC(=O)NCCS(=O)(=O)O.[Na]` [Example 2, sodium lauroyl taurine], in series [1], the Bleeding time amounted to 41.5 and the IS value turned out to be 4.33. For `CCCCCCCCCCCC(=O)NCCS(=O)(=O)O.[Na]` [Comparative Example 16, sodium lauroyl taurine, reference compound], the Foam volume in series [2] is reported as 860 mL.

Consider `CCCCCCCCCCCC(=O)NCCS(=O)(=O)O.[Na]` [Example 12, sodium lauroyl taurine], for which the Foam volume in series [2] came to 1240 mL.
